Test results as given in paper PMC9775061 (2022).

How the values were obtained:
[1] = test system: rGG-(CAG)6-CC (RNA, repeat) GGCAGCAGCAGCAGCAGCAGCC; assay: fluorescence titration (turn-on, 463 nm, λex 300 nm); conditions: 300 mM NaCl; 20 mM MOPS pH 7.0; 10 µM DB-TPE; apparent; 1:1 model
[2] = test system: complementary (CAG)3/(CUG)3 RNA duplex (rGG-(CAG)3-CC and rGG-(CUG)3-CC) (RNA, duplex) GGCAGCAGCAGCC/GGCUGCUGCUGCC; assay: fluorescence turn-on (λex 300 nm); conditions: 300 mM NaCl; 20 mM MOPS pH 7.0; 10 µM DB-TPE, 1 eq. duplex; much weaker fluorescence, likely non-specific electrostatic

CN(C)CCCNC(=N)c1ccc(C(=N)NCCCN(C)Cc2cn(Cc3ccc(C(=C(c4ccccc4)c4ccccc4)c4ccccc4)cc3)nn2)cc1
Kd [1]: 2 µM
binding [2]: weak
